From PubChem BioAssay (NCI)
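Each compound was tested at five concentrations against cells in 96-well plates for 48 hours. TGI is the concentration that stops growth completely.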

Key:
Assay in all cases: NCI tumour cell line growth inhibition, 48 h
CAKI-1 renal = test system: CAKI-1 renal
DLD-1 colon = test system: DLD-1 colon
M19-MEL melanoma = test system: M19-MEL melanoma
DMS 114 small cell lung = test system: DMS 114 small cell lung
DMS 273 small cell lung = test system: DMS 273 small cell lung
HOP-18 NSCLC = test system: HOP-18 NSCLC
SNB-78 CNS = test system: SNB-78 CNS
LXFL 529 NSCLC = test system: LXFL 529 NSCLC
RXF-631 renal = test system: RXF-631 renal
KM20L2 colon = test system: KM20L2 colon
XF 498 CNS = test system: XF 498 CNS

`Clc1cc(N/N=C(/c2ccccc2)c2ncccn2)ncn1` was tested, and the TGI (CAKI-1 renal) was 73.4 µM.
`O=C1CC(C(O)CO)CC(=O)N1` (stereo not given) showed a TGI (CAKI-1 renal) greater than 100 µM.
With `CCOC(=O)c1cc2c([N+](=O)[O-])c(NC(C)=O)ccc2s1` the TGI (CAKI-1 renal) was greater than 100 µM.
Compound `C[C@]12OC[C@H](c3ccccc3)N1C(=O)C1[C@H]2CC12SCCS2` (stereo not given in full) has a TGI (CAKI-1 renal) greater than 100 µM.
`C[N+](C)(C)CC(=O)N/N=c1\cc(C(=O)Nc2ccc(N=O)cc2C#N)oc2cc(O)ccc12` showed a TGI (CAKI-1 renal) greater than 100 µM, a TGI (DLD-1 colon) greater than 100 µM and a TGI (M19-MEL melanoma) greater than 100 µM. For the same compound, the TGI (DMS 114 small cell lung) was greater than 100 µM, the TGI (DMS 273 small cell lung) was greater than 100 µM and the TGI (HOP-18 NSCLC) was greater than 100 µM. The TGI (SNB-78 CNS) was greater than 100 µM, the TGI (LXFL 529 NSCLC) was greater than 100 µM and the TGI (RXF-631 renal) was greater than 100 µM. It also gave a TGI (KM20L2 colon) greater than 100 µM and a TGI (XF 498 CNS) greater than 100 µM.
`Cc1ccc(S(=O)(=O)N2CCN3C(=O)c4ccccc4C32c2ccc(F)cc2)cc1` (stereo not given) was tested, and the TGI (CAKI-1 renal) was greater than 100 µM.
Compound `O=c1[nH]c2nc3ccccc3c(=O)n2/c1=C/c1ccc(O)cc1` has a TGI (CAKI-1 renal) greater than 100 µM.
For `C=CC(=O)c1ccc2c(c1)OCCOCCOCCOCCOCCO2`, the TGI (CAKI-1 renal) was 68 µM, the TGI (DLD-1 colon) was 30.1 µM and the TGI (M19-MEL melanoma) was 32.2 µM. The TGI (DMS 114 small cell lung) was 41 µM, the TGI (DMS 273 small cell lung) was 29.1 µM and the TGI (HOP-18 NSCLC) was 30.2 µM. For the same compound, the TGI (SNB-78 CNS) was 35.2 µM, the TGI (LXFL 529 NSCLC) was 30.8 µM and the TGI (KM20L2 colon) was greater than 100 µM. The TGI (XF 498 CNS) was 28.7 µM.
Work on `C=CCN(CC=C)Cn1c(=S)sc2ccccc21` yielded a TGI (CAKI-1 renal) of 30.7 µM.
For `CCOC(=O)C(OCC1CC=CCC1)Sc1ccccc1` (stereo not given), the TGI (CAKI-1 renal) was greater than 100 µM, the TGI (DLD-1 colon) was greater than 100 µM and the TGI (M19-MEL melanoma) was greater than 100 µM. It also gave a TGI (DMS 114 small cell lung) greater than 100 µM, a TGI (DMS 273 small cell lung) greater than 100 µM and a TGI (HOP-18 NSCLC) greater than 100 µM. It also gave a TGI (SNB-78 CNS) greater than 100 µM, a TGI (LXFL 529 NSCLC) greater than 100 µM and a TGI (KM20L2 colon) greater than 100 µM.
With `CC(=O)OCC1OC(N2C(=O)/C(=C\c3ccc(Cl)cc3)C(N)=Nc3ccccc32)C(OC(C)=O)C(OC(C)=O)C1OC(C)=O` (stereo not given) the TGI (CAKI-1 renal) was greater than 100 µM.
Compound `Cc1ccc(-c2cc(N)n(-c3nc4c([nH]3)c(=O)n(C)c(=O)n4C)n2)cc1` has a TGI (CAKI-1 renal) of 13.4 µM.
Compound `Clc1nc(Cl)nc(NC23CC4CC(CC(C4)C2)C3)n1` has a TGI (CAKI-1 renal) of 21.7 µM.
